Experimental data as given in patent US20070248967A1, “Reporter Assay Using Secrectory Luminescent Enzymes” (NATIONAL INSTITUTE OF ADVANCED INDUSTRIAL SCIENCE, priority 2005, published 2007).

Legend:
CLuc [1] = test: Influences of various chemical substances on CLuc activity measurement; type: biochemical, Cypridina noctiluca; conditions: highly concentrated chemical substance added to culture supernatant; FIG. 6
Description: For the CLuc activity measurement, an LB960 luminometer (Berthold) was used.
The measurement values were divided by absorbance of the culture solution at 600 nm such that CLuc activity subjected to a correction of the number of yeast cell bodies was obtained.
Influences of chemical substances on CLuc activity measurement were examined, as such substances coexist with yeast culture supernatants upon CLuc activity measurement following the secretory expression of CLuc in yeasts.
Chemical substances (2 μl) that had been adjusted to have different concentrations were separately added to 20 μl of the prepared culture supernatant, followed by CLuc activity measurement.
The relative residual activity of each sample is represented by the mean value and the standard deviation on the condition that the CLuc activity of a sample to which a chemical substance was not added is determined to be 100%.

CUP1 promoter = test: CuSO4 induction experiment, reporter assay using mCLuc or β-galactosidase; type: cell-based, Saccharomyces cerevisiae; conditions: 0.025 mM CuSO4-containing medium, pmCLuRA-CUP1 (8 hours) / pGALuRA-CUP1 (16 hours); FIGS. 13A, 13B
Description: It has been known that the expression of the CUP1 gene (systematic gene name: YHR053C) of Saccharomyces cerevisiae is induced in the presence of copper ions (Gene, 48, 13-22 (1986)). That is, a CUP1 promoter is a copper-ion-inducible promoter. Thus, with the use of pmCLuRA-CUP1, it was examined whether or not such induction would be observed in the case of mCLuc. In addition, a similar experiment was carried out using β-galactosidase. The results of both experiments were compared and examined.
Three clones of a transformant comprising pmCLuRA-CUP1 and those of a transformant comprising pGALuRA-CUP1 described above were separately introduced into a synthetic liquid medium (SD+KHLadeW 200 mM KPi). Each resultant was shake-cultured overnight at 30° C. until the stationary phase.
Subsequently, 5 μl of the culture solution containing a transformant comprising pmCLuRA-CUP1 was introduced into each well of a 96-deep well plate, with 1 ml of a 0.025 mM CuSO4-containing synthetic liquid medium (SD+KHLadeW 200 mM KPi) or a CuSO4-free synthetic liquid medium (SD+KHLadeW 200 mM KPi) having been added to such well. This was followed by shake culture at 30° C. 8 hours after the initiation of culture, a portion of the culture solution was recovered, followed by measurement of absorbance at 600 nm (OD600) and relative light units (RLU) from a luminometer in accordance with the method in Example 1. […]

CLuc [2] = conditions: final concentration in reaction solution, 100 mM Tris-HCl pH 7.4; FIG. 3
Description: In addition, a stock solution of the culture supernatant of the transformant comprising pCLuRA-TDH3 was separately serial-diluted 10-fold, 100-fold, 1000-fold, and 10000-fold with an SD medium containing a 100 mM phosphate buffer solution so that the resulting diluted culture supernatants were used. Specifically, the concentration of the culture supernatant stock solution was determined to be 100% such that 10-fold, 100-fold, 1000-fold, and 10000-fold diluted culture supernatants had supernatant concentrations of 10%, 1%, 0.1%, and 0.01%, respectively.
Then, CLuc activity measurement was carried out as with the case of Example 1.
In FIG. 3, plots indicate results obtained by using culture supernatants that had been serial-diluted with a culture supernatant stock solution (100%) with reaction solutions with different final concentrations of luciferin.

GAL1 promoter = test: Galactose induction experiment, reporter assay using mCLuc or β-galactosidase; type: cell-based, Saccharomyces cerevisiae; conditions: 2% galactose-containing medium without glucose, 32 hours, pmCLuRA-GAL1 / pGALuRA-GAL1; FIGS. 14A, 14B
Description: It has been known that the expression of GAL1 gene (systematic gene name: YBR020W) of Saccharomyces cerevisiae is induced in the absence of glucose and the presence of galactose (West, R. W. J. et al., Mol. Cell. Biol., 4: 2467-2478 (1984)). That is, a GAL1 promoter is a galactose-inducible promoter. Thus, with the use of pmCLuRA-GAL1, it was examined whether or not such induction would be observed in the case of mCLuc. In addition, a similar experiment was carried out using β-galactosidase. The results of both experiments were compared and examined.
Three clones of a transformant comprising pmCLuRA-GAL1 and those of a transformant comprising pGALuRA-GAL1 described above were separately introduced into a synthetic liquid medium (SD+KHLadeW 200 mM KPi). […]
Subsequently, 20 μl of the culture solution containing a transformant comprising pmCLuRA-GAL1 was introduced into each well of a 96-deep well plate, with 1 ml of a 2% galactose-containing synthetic liquid medium (SC+KHLadeW (prepared by removing glucose from SD+KHLWade in Example 1) 200 mM KPi) or a synthetic liquid medium (SD+KHLadeW 200 mM KPi) having been added to such well. […] 32 hours after the initiation of culture, a portion of the culture solution was recovered, followed by measurement of absorbance at 600 nm (OD600) and relative light units (RLU) from a luminometer in accordance with the method in Example 1. […]

[3] = Stability of CLuc in yeast culture supernatants; type: physicochemical
Description: The prepared culture supernatants were incubated at 0° C., 25° C., 40° C., and 50° C. for 0, 15, 30, and 60 minutes, respectively, followed by CLuc activity measurement.
In FIG. 4, each plot indicates the mean value and the standard deviation of relative residual activities of each sample subjected to incubation at a given temperature for a given period of time. The vertical axis denotes the relative residual activity based on the CLuc activity (100%) of a sample that had not been incubated.

[4] = Stability of CLuc activity after sampling of culture solutions; type: physicochemical; conditions: culture solution incubated at 25° C. for 30 minutes; FIG. 8
Description: Thus, in order to examine the stability of CLuc activity after sampling of culture solutions, a transformant comprising pCLuRA-TDH3 prepared in Example 1 was cultured as with the case of Example 1. Then, the yeast culture solution was partially collected (sampling), followed by incubation at 25° C. for 0, 10, 20, and 30 minutes. After incubation, the CLuc activity of each culture solution sample was measured as with the case of Example 1.
In FIG. 8, CLuc activity is shown as the relative residual activity based on the CLuc activity of a sample that was measured immediately after sampling (100%).

With `O=S(=O)([O-])[O-].[Cu+2]` [CuSO4] the “inhibition of the enzyme activity of CLuc (relative residual activity)” value (CLuc [1]) was “inhibited” and the “transcription induction of the CUP1 promoter” value (CUP1 promoter) was “transcription induction”.

In the case of `CC[C@H](C)c1nc2c(CCCNC(=N)N)[nH]c(-c3c[nH]c4ccccc34)cn-2c1=O` [Cypridina luciferin], the “final luciferin concentration at which CLuc activity reaches a saturation point” value (CLuc [2]) is reported as ≥ 1 µM.

In the case of `CCO` [ethanol], the “inhibition of the enzyme activity of CLuc (relative residual activity)” value (CLuc [1]) is reported as “inhibited”.

In the case of `O=C[C@H](O)[C@@H](O)[C@@H](O)[C@H](O)CO` [galactose], the “transcription induction of the GAL1 promoter” value (GAL1 promoter) is reported as “transcription induction”.

B1: CLuc: Cypridina noctiluca-secretory luciferase (SEQ ID NO: 2); secreted from yeast as αCLuc with α-factor signal peptide (protein, listed as Cypridina noctiluca)
chain: MKTLILAVALVYCATVHCQDCPYEPDPPNTVPTSCEAKEGECIDSSCGTCTRDILSDGLCENKPGKTCCRMCQYVIECRVEAAGWFRTFYGKRFQFQEPGTYVLGQGTKGGDWKVSITLENLDGTKGAVLTKTRLEVAGDIIDIAQATENPITVNGGADPIIANPYTIGEVTIAVVEMPGFNITVIEFFKLIVIDILGGRSVRIAPDTANKGMISGLCGDLKMMEDTDFTSDPEQLAIQPKINQEFDGCPLYGNPDDVAYCKGLLEPYKDSCRNPINFYYYTISCAFARCMGGDERASHVLLDYRETCAAPETRGTCVLSGHTFYDTFDKARYQFQGPCKEILMAADCFWNTWDVKVSHRNVDSYTEVEKVRIRKQSTVVELIVDGKQILVGGEAVSVPYSSQNTSIYWQDGDILTTAILPEALVVKFNFKQLLVVHIRDPFDGKTCGICGNYNQDFSDDSFDAEGACDLTPNPPGCTEEQKPEAERLCNSLFAGQSDLDQKCNVCHKPDRVERCMYEYCLRGQQGFCDHAWEFKKECYIKHGDTLEVPDECK
modifications: α-factor signal peptide
With B1 the “stability of CLuc as an enzyme (relative residual activity)” value ([3]; culture supernatant incubated at 0, 25, 40, 50° C. for 0-60 minutes, FIG. 4) was “highly stable”, the “stability of CLuc at room temperature” value ([3]; culture supernatant, room temperature, 15 minutes after sampling) was “stable” and the “change in CLuc activity after sampling (relative residual activity)” value [4] was “almost no change”.
